The values that follow come from patent US8404839B2, “Crystalline 4-(3-chloro-2-fluoroanilino)-7 methoxy-6-{[1-(N-methylcarbamoylmethyl)piperidin-4-yl]oxy} quinazoline difumarate Form A” (Astrazeneca AB, priority 2008, dated 2013).

Data set [1] can be described thus: Dynamic vapour sorption. The class given is physicochemical. The conditions noted are these: for hygroscopicity (in words): Dynamic Vapour Sorption. The procedure:
(ix) dynamic vapour sorption was measured using a SMS DVS (Surface Measurement Systems Limited, UK). Samples were analysed at 25° C. using a gas flow of 200 cubic centimeters per minute. The relative humidity (RH) was increased from 0% RH in steps of 10% RH to 80% RH with the final step of 95% RH. The sample was then desorbed using the same RH step pattern as the sorption; this procedure was then repeated in a second sorption/desorption cycle. Equilibration at each humidity step is set such that the rate of change of weight with time (minute) was 0.002%.

Data set [2] can be described thus: In vitro dissolution of direct compression tablets. The class given is physicochemical. The conditions noted are these: pH 4.5 citrate buffer, 100 mg free base equivalents. The procedure:
The performance of the solid dosage forms was evaluated in vitro prior to the in-vivo dog study commencing.

Data set [3] in a line: Intrinsic dissolution rate in aqueous buffers. As to conditions: for Intrinsic Dissolution Rate: 37° C. The class given is physicochemical. The procedure: (x) intrinsic dissolution rate was measured in a dissolution bath coupled to a fibre optic uv detector.
Data set [4] in a line: Aqueous solubility (HPLC UV). In kind it is physicochemical. As to conditions: for solubility at 48 h: thermodynamic from solid, 25° C. The procedure:
(xi) solubility in water was measured using HPLC UV.
The intrinsic dissolution rates of Compound (I) difumarate Form A and Compound (I) was also been measured in a range of aqueous buffers.

The nature of data set [5]: Pharmacokinetic study in dogs. The class given is in vivo, Male Beagle Dogs. The conditions noted are these: dog, n = 4, mean ± SE; for AUC(0-t): read-out: AUC(0-48).
The test system of data set [6] is ErbB3. Kind of data set: p-ErbB3 ELISA in HRG-stimulated MCF-7 cells. The class given is cell-based, Human. As to conditions: 90 minutes treatment, bracket = confidence interval ratio, read-out: p-ErbB3 Geo Mean IC50 (95% CIR). The procedure:
KB cells and MCF-7 cells were obtained from the American Type Culture Collection (ATCC) and routinely cultured in RPMI 1640 (Phenol red free)+10% Foetal Bovine Serum+2 mM L-Glutamine. KB cells were seeded at 5000 cells/well and MCF-7 cells at 4000 cells/well in 96 well plates in RPMI 1640 media containing 10% FBS. Cells were incubated for 72 hours before replacing the media with serum-free RPMI 1640 media for 24 hours. […] Immediately before cell lysis, MCF-7 and KB cells were incubated for 5 minutes with ligand (heregulin (“HRG”) for the MCF-7 cells and epidermal growth factor (“EGF”) for the KB cells) at concentrations required to increase receptor phosphorylation to 90% of max (ED90) to allow inter-assay comparison. The p-EGFR status of KB cells was measured using the Human phospho-EGFR Duoset ELISA kit (R&D systems total EGFR #DYC1854, pEGFR #DYC1095). The p-ErbB2 and p-ErbB3 content of MCF-7 cells were measured using the Human phospho-ErbB2 Duoset ELISA kit (R&D systems, DYC1768) and Human phospho-ErbB3 Duoset ELISA kit (R&D systems, DYC1769) respectively. The kits measured whole cell tyrosine phosphorylation of EGFR, ErbB2 or ErbB3. Assays were performed according to the manufacturers instructions, with 50 μl lysate added per well.
(An ELISA detects its analyte on a solid surface through an enzyme-linked reagent.)

For data set [7], the target named is ErbB2 (Homo sapiens, UniProt P04626). The experiment in a line: p-ErbB2 ELISA in HRG-stimulated MCF-7 cells. The class given is cell-based. As to conditions: 90 minutes treatment, bracket = confidence interval ratio, read-out: p-ErbB2 Geo Mean IC50 (95% CIR).
The subject of data set [8] is MCF-7 cells. Kind of data set: HRG-stimulated MCF-7 cell proliferation assay (MTS). In kind it is cell-based. As to conditions: Homo sapiens, MCF7, 96 h, 10 ng/ml HRG, 4 days, basal growth subtracted, read-out: HRG-stimulated proliferation Geo Mean IC50.
The test system of data set [9] is MCF-7 cells. The experiment in a line: Basal MCF-7 cell proliferation assay (MTS). In kind it is cell-based. As to conditions: Homo sapiens, MCF7, 96 h, unstimulated, 4 days, read-out: Basal proliferation Geo Mean GI50. The procedure:
MCF-7 cells were routinely cultured in DMEM (Phenol red free)+10% Foetal Bovine Serum+2 mM L-Glutamine. […] Basal wells were unstimulated with ligand. After incubation for 4 days, cell viability was assessed using a 3-(4,5-dimethylthiazol-2-yl)-5-(3-carboxymethoxyphenyl)-2-(4-sulfophenyl)-2H-tetrazolium (MTS) assay. Prior to IC50 determination of HRG-stimulated compound-treated cells, mean basal growth at 96 hours was subtracted from each of the readouts so that proliferation driven through HRG-signalling was assessed. Basal IC50 values are expressed as GI50 i.e. the day 0 plate cell number (baseline reading) was subtracted from the readout at 96 hours later.

Data set [10] in a line: Cellular permeability / BCS classification. In kind it is in vitro ADME.
[11] abbreviates: oral direct compressed tablet, 100 mg free form equivalent.
Where [12] appears, read: oral direct compressed tablet, 100 mg free form equivalent, versus IV 20 mg.
Setting [13] is: male, beagle, plasma, oral direct compressed tablet, 100 mg free form equivalent.

Values after ≈ are worked out from the molar mass of the structure shown. Like-named read-outs stand apart in the source and are kept apart here. Bounds are passed on as bounds.

ErbB2, sequence (P04626 23-1255): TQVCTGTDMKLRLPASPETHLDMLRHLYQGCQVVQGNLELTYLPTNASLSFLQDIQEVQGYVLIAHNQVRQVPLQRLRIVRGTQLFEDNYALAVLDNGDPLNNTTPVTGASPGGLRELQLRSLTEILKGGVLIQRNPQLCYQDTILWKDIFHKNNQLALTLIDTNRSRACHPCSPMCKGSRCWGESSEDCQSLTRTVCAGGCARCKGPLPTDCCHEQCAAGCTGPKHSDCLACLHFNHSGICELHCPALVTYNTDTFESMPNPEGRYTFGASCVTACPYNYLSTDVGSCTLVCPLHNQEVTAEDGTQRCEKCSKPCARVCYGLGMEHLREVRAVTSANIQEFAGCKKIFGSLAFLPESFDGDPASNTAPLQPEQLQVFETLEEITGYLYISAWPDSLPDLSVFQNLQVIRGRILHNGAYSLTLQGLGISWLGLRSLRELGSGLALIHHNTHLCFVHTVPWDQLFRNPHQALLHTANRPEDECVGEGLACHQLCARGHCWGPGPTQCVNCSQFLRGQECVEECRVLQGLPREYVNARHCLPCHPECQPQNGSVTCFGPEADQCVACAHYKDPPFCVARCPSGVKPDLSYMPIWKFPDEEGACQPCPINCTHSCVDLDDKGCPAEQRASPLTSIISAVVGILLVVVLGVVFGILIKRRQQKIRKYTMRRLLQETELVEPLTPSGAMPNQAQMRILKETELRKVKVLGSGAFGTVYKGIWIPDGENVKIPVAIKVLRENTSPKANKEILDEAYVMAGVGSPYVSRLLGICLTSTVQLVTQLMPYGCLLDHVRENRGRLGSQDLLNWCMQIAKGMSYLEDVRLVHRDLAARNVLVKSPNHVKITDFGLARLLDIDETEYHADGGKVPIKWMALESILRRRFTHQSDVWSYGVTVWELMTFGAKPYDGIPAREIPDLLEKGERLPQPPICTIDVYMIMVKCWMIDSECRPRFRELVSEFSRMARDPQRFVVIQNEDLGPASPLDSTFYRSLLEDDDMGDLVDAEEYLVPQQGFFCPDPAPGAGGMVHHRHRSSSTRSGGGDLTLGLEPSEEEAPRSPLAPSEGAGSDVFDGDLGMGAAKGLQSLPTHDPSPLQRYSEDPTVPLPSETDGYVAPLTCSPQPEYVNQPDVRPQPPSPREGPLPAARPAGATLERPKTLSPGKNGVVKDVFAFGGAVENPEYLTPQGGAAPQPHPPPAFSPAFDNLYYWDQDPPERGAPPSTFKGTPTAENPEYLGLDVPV

Broadly, the Cmax is the highest concentration seen after dosing. The Tmax is the time at which the peak concentration occurs. In general, half-life refers to the time in which the quantity being followed falls by half. In the case of `CNC(=O)CN1CCC(Oc2cc3c(Nc4cccc(Cl)c4F)ncnc3cc2OC)CC1.O=C(O)/C=C/C(=O)O.O=C(O)/C=C/C(=O)O` [Compound (I) difumarate Form A, 2-[4-({4-[(3-Chloro-2-fluorophenyl)amino]-7-methoxyquinazolin-6-yl}oxy)piperidin-1-yl]-N-methylacetamide di-[(2E)-but-2-enedioate] Form A], the “hygroscopicity (in words)” value in [1] is “non-hygroscopic”. The “moisture absorbed (Dynamic Vapour Sorption)” value in [1] (up to 95% relative humidity, 25° C.) was below 0.5%. In addition, in [2], the “% Dissolution at 45 minutes” value worked out at 100.3%. Besides, the “Intrinsic Dissolution Rate” value in [3] (SGF (Simulated Gastric Fluid)) is given as 15.9 mgmin^−1cm^−2. Also, the “Intrinsic Dissolution Rate” value in data set [3] (pH 6.5 phosphate buffer) was 2.51 mgmin^−1cm^−2. In data set [4] (pH 3.5), this compound yielded a solubility in water of 22500 µg/mL. In [5] (setting [11]), the “AUC(0-48)” value is 190.3 ± 46.9 µM·h, the peak concentration (Cmax) worked out at 32.6 ± 3.6 µM, the Tmax stood at 1.1 ± 0.3 h and the half-life turned out to be 16.9 ± 4.0 h. The “Bioavailability(0-48 h)” value in data set [5] (setting [12]) was 113%. The “Bioavailability(0-48 h)” value in [5] (oral direct compressed tablet, 100 mg free form equivalent, versus IV 20 mg, listed as Difumarate Form A) was 112.5 ± 8.1%.
The term solubility denotes the dissolved amount per volume that the medium holds. What is called bioavailability is dose-corrected exposure relative to a reference, in per cent. As usually defined, the clearance is a measure of how efficiently the substance is removed, as volume per time. As to `CNC(=O)CN1CCC(Oc2cc3c(Nc4cccc(Cl)c4F)ncnc3cc2OC)CC1` [Compound (I), 4-(3-chloro-2-fluoroanilino)-7-methoxy-6-{[1-(N-methylcarbamoylmethyl)piperidin-4-yl]oxy}quinazoline], the IC50 in [6] worked out at 4 nM; in [7], 3 nM; in [8], 61 nM. In [1], the “hygroscopicity (in words)” value was “moderately hygroscopic”. The “moisture uptake (Dynamic Vapour Sorption)” value in [1] (at 80% relative humidity, 25° C.) was “approximately 1.9 % w/w”. Also, the “% Dissolution at 45 minutes” value in [2] is 93.6%. In addition, the “Intrinsic Dissolution Rate” value in data set [3] (SGF (Simulated Gastric Fluid)) is 19.2 mgmin^−1cm^−2; in [3] (pH 6.5 phosphate buffer), 0.01 mgmin^−1cm^−2. Also, in [3] (particularly at pH below 6.0), the “intrinsic dissolution rate (in words)” value is “relatively low”. Moreover, the solubility at 48 h in data set [4] (aqueous buffer, pH 2.7, 48 hours, read-out: solubility in aqueous buffer) was found to be 27200 µg/mL (≈ 57400 µM); in [4] (aqueous buffer, pH 7.9, 48 hours, read-out: solubility in aqueous buffer), 1 µg/mL (≈ 2.11 µM); in data set [4] (water, 48 hours, pH 7.0, read-out: solubility in water), 1 µg/mL (≈ 2.11 µM). Also, the GI50 in data set [9] was found to be 1090 nM. Besides, the “Bioavailability(0-48 h)” value in data set [5] (setting [12]) is 63.5 ± 7.0%. In addition, in data set [5] (male, beagle, plasma, oral, 100 mg, oral direct compressed tablet, 100 mg free form equivalent, versus IV 20 mg, read-out: Bioavailability(0-48 h)), the bioavailability was found to be 64%. The Cmax in data set [5] (male, beagle, plasma, IV 20 mg) stood at 9 ± 1.1 µM; in [5] (setting [13]), 14 ± 1.7 µM. Also, the AUC(0-t) in data set [5] (male, beagle, plasma, IV 20 mg) stood at 33.4 ± 7.7 µM·h; in data set [5] (setting [13]), 104 ± 25.3 µM·h. The clearance in data set [5] (male, beagle, plasma, IV 20 mg, read-out: Cl (Clearance)) was 1.9 ± 0.5 mL/min/kg. The half-life in data set [5] (male, beagle, plasma, IV 20 mg, read-out: Half-life (converted)) is 5.3 ± 0.2 h; in data set [5] (male, beagle, plasma, oral direct compressed tablet, 100 mg free form equivalent, read-out: Half-life (converted)), 8.2 ± 0.6 h. Further, the Tmax stood at 0.2 h in data set [5] (male, beagle, plasma, IV 20 mg, read-out: Tmax) and 1.6 ± 0.8 h in data set [5] (male, beagle, plasma, oral direct compressed tablet, 100 mg free form equivalent, read-out: Tmax). Also, the Vd in data set [5] (male, beagle, plasma, IV 20 mg, read-out: Vss (Volume of distribution at steady state)) was determined as 0.6 ± 0.1 L/kg. Also, the “cellular permeability (in words)” value in data set [10] is “high”. Moreover, in data set [10] (suggested by low solubility and high permeability), the BCS classification entry was “Class II”.
